The text below walks through data of PubChem BioAssay AID2305 (GlaxoSmithKline (GSK), 2010).

For the experiment, the system named is P. falciparum 3D7 growth, pLDH absorbance. Description: P. falciparum 3D7 growth inhibition, dose response, strain 3D7 (AID 2305).

The molecule `COc1ccc(CNC(=O)Nc2cc3cc(-c4ccc(CN(C)C)cc4)ccc3n3c(C)nnc23)cc1` displayed an IC50 of 850 nM. Regarding `Nc1ccnc(N2CCC(CCOc3cc(C(F)(F)F)nc4c(C(F)(F)F)cccc34)CC2)c1`, the IC50 was determined as 790 nM.

Turning to `O=C(/C=C/c1ccc(C(F)(F)F)cc1)NCCCCCN1CCN(C(=O)Nc2ccc(Cl)cc2)CC1`, the IC50 amounted to 1010 nM.

As to `FC(F)(F)c1ccc2nccc(NN=Cc3cccnc3)c2c1`, the IC50 was found to be 630 nM. `COc1cc2nc(N3CCC(CNC(=O)c4ccc(-c5ccc(Cl)cc5)cc4)CC3)nc(N)c2cc1OC` showed an IC50 of 150 nM. Against the preceding molecule, the IC50 is about 4.2-fold lower. `NC(N)=NC(=O)Nc1cc(Br)c(Br)c(Br)c1` returned a half-inhibitory concentration (IC50) of 810 nM. On to `Cc1ccc(S(=O)(=O)N2CCCN(C(=O)c3cc(-c4ccccc4)n[nH]3)CC2)cc1`, for which the IC50 came out at 80 nM. The molecule `CCOc1cc(C)ccc1N1CCN(CCN2CCC(NC(=O)c3ccc(-c4ccc(C#N)cc4)cc3)CC2)CC1` came in with an IC50 of 1430 nM.

The molecule `O=C(NC1CCC(CCN2Cc3cccc(F)c3C2)CC1)c1cccc(-c2cccnc2)c1` (stereo not given) registered an IC50 of 300 nM. Against the preceding molecule, the IC50 is about 4.8-fold lower.

On to `CNC(=O)c1cc(S(=O)(=O)N2CCN(c3ccccn3)CC2)cs1`, for which the half-inhibitory concentration (IC50) came to 670 nM. Then `N#Cc1c(N2CCN(c3ccc(F)cc3)CC2)nc(N)c2c(N)nc3c(c12)CC(=O)N3C1CC1`, with 840 nM; and `COc1ccc(C=NNc2cc(C)nc3ccccc23)c2ccccc12`, with 750 nM; and `COc1ccc(CN2CCC(CNC(C)c3cccc4ccccc34)CC2)cc1` (stereo not given), with 180 nM. Molecule `Cc1cccc2[nH]cc(C3CCN(CC4CCC(NC(=O)/C=C/c5ccc(Cl)c(Cl)c5)CC4)CC3)c12` (stereo not given) came in with an IC50 of 160 nM. The IC50 values of the last two molecules are within 1.5-fold of each other. Regarding `Cc1cc(N[C@@H](Cc2ccccc2)C(=O)NCCOc2ccccc2)nc(NCCc2cccs2)n1`, the IC50 was determined as 1000 nM. Compared with the last molecule, the IC50 is about 6.2-fold higher. Molecule `Cc1cc(=O)[nH]c(/N=C(/N)NOCCCc2ccccc2)n1` came in with an IC50 of 760 nM. In the case of `CCN1CCC(N2CCC(n3c(C)nc4cc(C(F)(F)F)ccc43)CC2)CC1`, the IC50 came out at 1020 nM.

Regarding `Cc1cc(N[C@@H](CC(C)C)C(=O)NCCOc2ccccc2)nc(Nc2ccccc2)n1`, the IC50 is 1110 nM. `COc1ccc2nccc([C@@H](O)CN3CCC(NCc4ccc5c(c4)nnn5C(C)C)CC3)c2c1` yielded a half-inhibitory concentration (IC50) of 640 nM. Against the preceding molecule, the IC50 is about 1.7-fold lower. As for `CC(=O)c1c(Cc2cccc(C(F)(F)F)c2)c[nH]c1C`, the IC50 was 350 nM. Compared with the last molecule, the IC50 is about 1.8-fold lower. The same measure for `O=C(CCNc1ccnc(NCCc2ccc(F)cc2)n1)Nc1ccccc1`: 830 nM; for `Cc1cccc(-c2nc(Nc3ccncc3)c3cc(N(C)C)ccc3n2)n1`: 710 nM.

Molecule `Cc1cccc(C(=O)Nc2ccnc(N3CCC(N(C)Cc4cccc(C#N)c4)CC3)c2)c1` showed an IC50 of 1100 nM. Against the preceding molecule, the IC50 is about 1.5-fold higher. Regarding `OC(CNCc1ccccc1OCc1ccccc1)c1cccc(I)c1` (stereo not given), the IC50 was found to be 420 nM.

Consider `Cc1ccc(NC(=O)c2ccc3nccnc3c2)cc1OC1CCN(Cc2ccc(F)cc2)CC1`, for which the IC50 was found to be 1010 nM. Then `NC(N)=Nc1cccc(NC(=O)Nc2cccc(N=C(N)N)c2)c1`, with 260 nM. As for `NS(=O)(=O)c1cccc(-c2ccc3nccc(-c4cccc(S(N)(=O)=O)c4)c3c2)c1`, the concentration for half-maximal inhibition (IC50) came to 1270 nM. On to `CCn1c(-c2nonc2N)nc2c(-c3cccc(NC(=O)Nc4cccc(C(F)(F)F)c4)c3)ncc(OCCCN)c21`, for which the IC50 was 970 nM. As for `CCN1CCN(c2ccc(Nc3c4ccccc4nc4ccccc34)cc2)CC1`, the IC50 was 720 nM.

The molecule `O=C(/C=C/c1ccc(Cl)c(Cl)c1)NCCC(CN1CCC(c2c[nH]c3ccccc23)CC1)c1ccccc1` (stereo not given) returned an IC50 of 570 nM. This IC50 and that of the molecule before are within 1.5-fold of each other.

Molecule `O=C(Nc1ccc(OC2CCN(Cc3ccccc3)CC2)c(Cl)c1)c1ccco1` registered an IC50 of 410 nM. `c1cc2nc(CCCCCc3nc4ccc(C5=N[C@@H]6CCCC[C@@H]6N5)cc4[nH]3)[nH]c2cc1C1=N[C@@H]2CCCC[C@@H]2N1` came in with an IC50 of 200 nM. The same measure for `CC(C)N(C(=O)CSc1nc2cc(Cl)ccc2c(=O)n1Cc1ccccc1)C(C)C`: 170 nM.

Turning to `N#Cc1ccc(-c2ccc(C(=O)NCCCCN3CCC(c4ccc5c(c4OCC(N)=O)CCCC5)CC3)cc2)cc1`, the IC50 is 980 nM. Compared with the last molecule, the IC50 is about 5.8-fold higher. For the molecule `CC(C)CCNC(=O)C1Cc2c([nH]c3ccc(Br)cc23)C2(CCN(CCc3ccccc3)CC2)N1` (stereo not given), the IC50 was 690 nM. Then `Fc1ccc2nc(-c3cccc(-c4ccc(CN5CCN(c6cnccn6)CC5)cc4)c3)[nH]c2c1`, with 890 nM; and `CCN(CC)CCOC(=O)C(OC)(c1ccccc1)c1ccccc1`, with 1020 nM. For `Cc1cc(C2CCN(CCCCNC(=O)c3ccc(-c4ccc(C#N)cc4)cc3)CC2)c(C)cc1OCCO`, the concentration for half-maximal inhibition (IC50) amounted to 810 nM. Take `COCCn1c(-c2cccc(Cl)c2)nn(-c2ccc([N+](=O)[O-])cc2C#N)c1=S`: the IC50 is 180 nM. This IC50 is about 4.5-fold lower than that of the molecule before. On to `O=C(/C=C/c1ccc(Cl)c(Cl)c1)N1CCC(CN2CCC(c3c[nH]c4ccc(O)cc34)CC2)CC1`, for which the IC50 was 780 nM. Molecule `COc1ccccc1CN1CCC(NC(=O)c2ccc(-c3cccc(C(F)(F)F)c3)s2)CC1` yielded an IC50 of 1310 nM. Turning to `COc1ccc2nccc([C@@H](O)CN3CCC(NCc4ccc5c(c4)N(C)C(=O)CO5)CC3)c2c1`, the IC50 stood at 750 nM. The same measure for `CCc1cn2c3c(cc(C(=O)N[C@@H](Cc4ccccc4)[C@H](O)CNC4CCOCC4)cc13)N(C)S(=O)(=O)C2`: 90 nM; for `Clc1ccc(-n2cnc3c(Nc4ccc(Oc5ccccc5)cc4)ncnc32)cc1Cl`: 750 nM; for `Cn1nccc1C(=O)NCCNCc1ccc(-c2ccc(-c3nc4ccc(C(F)(F)F)cc4[nH]3)cc2)cc1`: 150 nM. Consider `CC(C)c1ccc(NC(=O)NCCCC2CCCN(CCCCCNC(=O)/C=C/c3ccc(Cl)c(Cl)c3)C2)cc1` (stereo not given), for which the IC50 stood at 960 nM. Molecule `CC(C)N(Cc1ccccc1)C(=O)CN1C(=O)COc2ccc(S(=O)(=O)N3CCCCCC3)cc21` gave an IC50 of 250 nM. This IC50 is about 3.8-fold lower than that of the molecule before. The molecule `O=C(CCc1cnc[nH]1)Nc1ccc(-c2ccc(-c3nc4ccccc4[nH]3)cc2)cc1` yielded an IC50 of 710 nM.

On to `CCn1c(-c2nc(-c3ccnc(N4CCN(C)CC4)c3)cnc2N)nc2cc(S(C)(=O)=O)ccc21`, for which the IC50 stood at 810 nM. The IC50 values of the last two molecules are within 1.5-fold of each other. In turn, `COc1ccc(-n2cc(C(=O)c3cc(Br)ccc3O)cc(C#N)c2=O)cc1Cl` returned an IC50 of 790 nM.

Turning to `COc1ccccc1C1CC(c2ccccc2)=NN1C(=O)c1ccccc1` (stereo not given), the IC50 turned out to be 300 nM. For the molecule `CC(C)COc1ccc(Cl)cc1Cc1ccc(-c2nc3c(F)cccc3[nH]2)o1`, the IC50 worked out at 810 nM. Molecule `CCNc1cc(C)nc(Nc2ccc(NC(=O)c3c(F)cccc3Cl)cc2)n1` had an IC50 of 1120 nM. `CN(C)c1cccc(NC(=O)NC2N=C(c3ccccc3)c3ccccc3N(CC(=O)N(C)c3ccccc3)C2=O)c1` (stereo not given) registered an IC50 of 950 nM. `Cc1cccc2[nH]c(-c3ccc(-c4cccc(NC(=O)C(C)CN5CCN(C)CC5)c4)cc3)nc12` (stereo not given) showed a half-maximal inhibitory concentration (IC50) of 740 nM. The molecule `O=C(NC1CCC1)C1CCN(C(c2ccc(Cl)cc2)c2ccc(Cl)cc2)CC1` had an IC50 of 560 nM. For the molecule `CO/C(=C\C=C\c1cc2cc(Cl)c(Cl)cc2[nH]1)C(=O)NCCCN1CCN(c2cccc(O)c2)CC1`, the IC50 worked out at 580 nM.

For `Cc1cccc(CNc2nc(C)cc(NCCC(=O)NCCOc3ccccc3)n2)c1`, the IC50 stood at 870 nM. Consider `COc1ccc(CCN(C)CCOc2ccc(NC(=O)c3ccc([N+](=O)[O-])c4c(=O)c5ccccc5[nH]c34)cc2)cc1OC`, for which the 50% inhibitory concentration (IC50) was determined as 930 nM.

On to `Cc1cccc2[nH]c(-c3cccc(-c4ccc(CN5CCC(C(N)=O)CC5)cc4)c3)nc12`, for which the IC50 was found to be 850 nM. Turning to `COc1ccc2nccc([C@@H](O)CN3CCC(NCc4nc5cc(F)c(F)cc5[nH]4)CC3)c2c1`, the half-inhibitory concentration (IC50) was 530 nM. The same measure for `CN(CCCN(C)c1cc(NC(=O)c2cccc(F)c2)ccn1)Cc1cccc(O)c1`: 1920 nM; for `CC(C)C(=O)ONC1=NC(C)(C)N(OCCCOc2cc(Cl)c(Cl)cc2Cl)C(NOC(=O)C(C)C)=N1`: 30 nM; for `O=C(c1ccc(-c2ccc(Cl)cc2)o1)N1CCc2cc3nccc(N4CCN5CCC[C@H]5C4)c3cc21`: 170 nM. The molecule `FC(F)(F)c1ccc2nc(-c3ccc(-c4cccc(CNCCN5CCNCC5)c4)s3)[nH]c2c1` showed an IC50 of 1040 nM. This IC50 lies about 6.1-fold higher than the previous one. `Cc1cc(C(=O)CN2C(=O)NC(C)(c3cccc4ccccc34)C2=O)c(C)n1Cc1ccco1` (stereo not given): the IC50 amounted to 630 nM. The molecule `CCCCNC(=O)[C@H](CC1CCCCC1)NC(=O)c1ccc(O)c(-c2ccc(Cl)c(Cl)c2)c1` had an IC50 of 160 nM. The same measure for `Cc1cc(N[C@@H](CC(C)C)C(=O)Nc2ccccc2)nc(NCC2CCCCC2)n1`: 870 nM.

In turn, `Cc1cc(NN=Cc2ccc(F)cc2)c2cccc(C)c2n1` returned an IC50 of 780 nM. This IC50 and that of the molecule before are within 1.5-fold of each other. `CC(C)c1ncc(-c2ccncc2)c(C2CCC(CNC(=O)c3ccncc3)CC2)n1` (stereo not given) displayed an IC50 of 1350 nM. This IC50 lies about 1.7-fold higher than the previous one. The molecule `COc1ccc(CNc2nccc3ccc(-c4ccc(N)nc4)cc23)cc1` returned an IC50 of 980 nM. Take `O=C(CSc1nccn1C1CCCCC1)Nc1cc(C(F)(F)F)ccc1Cl`: the IC50 was determined as 400 nM. On to `COc1ccc2ncc(Cl)c([C@@H](O)CN3CCC(NCc4cc5c(cn4)OCCO5)CC3)c2c1`, for which the concentration for half-maximal inhibition (IC50) was 60 nM.

Turning to `CCc1sc(-c2ccc(C(C)(C)C)cc2)nc1C(=O)NCCCN1CCCC1=O`, the half-inhibitory concentration (IC50) was found to be 990 nM. In turn, `Cc1c(Cc2ccc(F)cc2)c(Cl)nc2nc(N)nc(N)c12` came in with an IC50 of 860 nM. This IC50 and that of the molecule before are within 1.5-fold of each other. Then `NC(=O)COc1cccc2c1CCN(CCN1CCC(NC(=O)c3ccc(-c4ccc(Cl)cc4)cc3)CC1)C2`, with 840 nM; and `COc1ccc2nc(-c3ccccc3)cc(NN=Cc3ccncc3)c2c1`, with 810 nM. For the molecule `O=C(/C=C/c1ccc(Cl)cc1)NCCCCCN1CCCN(C(=O)Nc2ccc(Cl)c(C(F)(F)F)c2)CC1`, the IC50 is 910 nM. The same measure for `COc1cccc(OC)c1C(=O)N1CCC2(CC1)C(=O)N(CC(=O)NC1CCCCC1)CN2c1ccccc1`: 950 nM. `NC(N)=Nc1ccc(OCCCCCOc2ccc(N=C(N)N)cc2)cc1`: the half-inhibitory concentration (IC50) stood at 190 nM. Molecule `NC(=NCc1ccc(Cl)c(Cl)c1)NC(=NCCCCCCN=C(NC(N)=NCc1ccc(Cl)c(Cl)c1)N1CCCCC1)N1CCCCC1` displayed an IC50 of 570 nM. `COc1ccc(NC(=O)Nc2ccc(-c3ccccc3)cc2Cl)cc1N1CCN(C)CC1` returned an IC50 of 870 nM. Against the preceding molecule, the IC50 is about 1.5-fold higher. In the case of `COc1cc(OC)c(OC)cc1C=NNc1cc(C)nc2ccccc12`, the IC50 turned out to be 300 nM.

For `Cn1cncc1-c1ccc2c(-c3ccsc3)cnc(N)c2c1`, the IC50 worked out at 850 nM.

Consider `CC(C)CNCc1cccc(-c2cccc(CN(CCCN3CCN(C)CC3)C(=O)/C=C/c3ccccc3)c2)c1`, for which the IC50 was 930 nM.
